According to patent US11739098B2 (BRISTOL-MYERS SQUIBB COMPANY, priority 2017, dated 2023):

What was measured:
Format in all cases: cell-based
[1] = target: T1, human TLR7 (Homo sapiens, UniProt Q9NYK1); test: TLR7 inhibition reporter assay (HEK-Blue cells, SEAP reporter, gardiquimod stimulation); conditions: HEK-Blue cells overexpressing human TLR7, SEAP reporter, gardiquimod 7.5 μM
T1 construct: host or cells: HEK-Blue cells (HEK293-derived reporter line)
T1 sequence (Q9NYK1 27-1049): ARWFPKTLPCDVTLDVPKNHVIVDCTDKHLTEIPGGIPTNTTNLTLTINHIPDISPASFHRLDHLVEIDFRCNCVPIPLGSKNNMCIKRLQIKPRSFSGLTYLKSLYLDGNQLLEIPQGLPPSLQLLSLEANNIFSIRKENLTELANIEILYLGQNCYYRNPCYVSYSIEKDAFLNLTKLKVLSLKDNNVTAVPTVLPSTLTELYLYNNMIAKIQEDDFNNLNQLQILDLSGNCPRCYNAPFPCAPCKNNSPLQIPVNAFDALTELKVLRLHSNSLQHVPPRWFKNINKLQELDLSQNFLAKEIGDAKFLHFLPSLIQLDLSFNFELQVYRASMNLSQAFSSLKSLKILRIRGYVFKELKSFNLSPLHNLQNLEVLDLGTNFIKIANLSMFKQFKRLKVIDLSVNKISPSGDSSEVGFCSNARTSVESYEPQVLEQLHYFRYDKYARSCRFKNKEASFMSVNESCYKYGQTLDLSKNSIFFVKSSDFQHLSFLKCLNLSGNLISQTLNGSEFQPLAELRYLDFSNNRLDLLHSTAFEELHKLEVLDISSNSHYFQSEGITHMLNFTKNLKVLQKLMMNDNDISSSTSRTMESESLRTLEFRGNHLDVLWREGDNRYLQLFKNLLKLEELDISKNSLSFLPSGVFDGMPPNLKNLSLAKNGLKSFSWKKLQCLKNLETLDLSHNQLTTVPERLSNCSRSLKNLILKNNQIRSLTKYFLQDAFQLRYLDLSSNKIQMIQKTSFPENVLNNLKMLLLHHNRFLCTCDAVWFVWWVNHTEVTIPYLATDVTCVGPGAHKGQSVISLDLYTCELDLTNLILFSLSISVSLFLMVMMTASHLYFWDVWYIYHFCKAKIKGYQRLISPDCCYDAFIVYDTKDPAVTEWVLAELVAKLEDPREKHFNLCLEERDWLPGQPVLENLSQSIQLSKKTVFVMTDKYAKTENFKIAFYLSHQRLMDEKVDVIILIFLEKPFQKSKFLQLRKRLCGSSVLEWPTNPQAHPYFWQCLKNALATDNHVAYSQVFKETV
Outline: (§1)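 HEK-Blue cells overexpressing human TLR7, TLR8 or TLR9 (NF-κB/AP-1-driven SEAP) pre-treated 30 min at room temperature with compound (0.05 nM–50 μM), then stimulated with gardiquimod 7.5 μM (TLR7), R848 15.9 μM (TLR8) or ODN2006 5 nM (TLR9). SEAP read colorimetrically after 22 h at 37 °C; % inhibition calculated.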

[2] = target: T2, human TLR9 (Homo sapiens, UniProt Q9NR96); test: TLR9 inhibition reporter assay (HEK-Blue cells, SEAP reporter, ODN2006 stimulation); conditions: HEK-Blue cells overexpressing human TLR9, SEAP reporter, ODN2006 5 nM
T2 construct: host or cells: HEK-Blue cells (HEK293-derived reporter line)
T2 sequence (Q9NR96 26-1032): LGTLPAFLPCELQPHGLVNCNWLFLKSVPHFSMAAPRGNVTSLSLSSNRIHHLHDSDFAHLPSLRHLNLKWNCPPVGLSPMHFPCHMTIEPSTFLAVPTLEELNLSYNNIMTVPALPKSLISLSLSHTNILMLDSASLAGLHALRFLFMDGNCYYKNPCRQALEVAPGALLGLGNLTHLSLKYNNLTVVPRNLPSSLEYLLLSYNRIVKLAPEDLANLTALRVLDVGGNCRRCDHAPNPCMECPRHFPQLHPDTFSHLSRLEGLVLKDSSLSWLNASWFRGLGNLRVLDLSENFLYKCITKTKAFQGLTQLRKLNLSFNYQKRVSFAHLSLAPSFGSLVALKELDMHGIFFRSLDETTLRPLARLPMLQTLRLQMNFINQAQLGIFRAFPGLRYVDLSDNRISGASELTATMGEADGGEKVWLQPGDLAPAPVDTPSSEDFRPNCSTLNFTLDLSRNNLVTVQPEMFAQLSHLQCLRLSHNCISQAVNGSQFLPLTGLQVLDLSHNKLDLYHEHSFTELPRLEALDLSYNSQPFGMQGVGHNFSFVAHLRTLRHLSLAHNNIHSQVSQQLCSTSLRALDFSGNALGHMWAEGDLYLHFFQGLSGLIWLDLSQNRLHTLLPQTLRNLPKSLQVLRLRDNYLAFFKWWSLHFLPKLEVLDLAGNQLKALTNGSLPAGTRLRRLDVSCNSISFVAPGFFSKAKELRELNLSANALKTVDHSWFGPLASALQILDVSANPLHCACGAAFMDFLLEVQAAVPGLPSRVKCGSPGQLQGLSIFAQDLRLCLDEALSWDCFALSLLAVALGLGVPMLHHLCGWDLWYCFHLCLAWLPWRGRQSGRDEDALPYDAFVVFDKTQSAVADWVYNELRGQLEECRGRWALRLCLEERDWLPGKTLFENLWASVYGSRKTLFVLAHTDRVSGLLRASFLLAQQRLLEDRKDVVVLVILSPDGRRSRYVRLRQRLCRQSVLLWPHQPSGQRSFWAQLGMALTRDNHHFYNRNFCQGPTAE
Outline: as §1

[3] = target: T3, human TLR8 (Homo sapiens, UniProt Q9NR97); test: TLR8 inhibition reporter assay (HEK-Blue cells, SEAP reporter, R848 stimulation); conditions: HEK-Blue cells overexpressing human TLR8, SEAP reporter, R848 15.9 μM
T3 construct: host or cells: HEK-Blue cells (HEK293-derived reporter line)
T3 sequence (Q9NR97 27-1041): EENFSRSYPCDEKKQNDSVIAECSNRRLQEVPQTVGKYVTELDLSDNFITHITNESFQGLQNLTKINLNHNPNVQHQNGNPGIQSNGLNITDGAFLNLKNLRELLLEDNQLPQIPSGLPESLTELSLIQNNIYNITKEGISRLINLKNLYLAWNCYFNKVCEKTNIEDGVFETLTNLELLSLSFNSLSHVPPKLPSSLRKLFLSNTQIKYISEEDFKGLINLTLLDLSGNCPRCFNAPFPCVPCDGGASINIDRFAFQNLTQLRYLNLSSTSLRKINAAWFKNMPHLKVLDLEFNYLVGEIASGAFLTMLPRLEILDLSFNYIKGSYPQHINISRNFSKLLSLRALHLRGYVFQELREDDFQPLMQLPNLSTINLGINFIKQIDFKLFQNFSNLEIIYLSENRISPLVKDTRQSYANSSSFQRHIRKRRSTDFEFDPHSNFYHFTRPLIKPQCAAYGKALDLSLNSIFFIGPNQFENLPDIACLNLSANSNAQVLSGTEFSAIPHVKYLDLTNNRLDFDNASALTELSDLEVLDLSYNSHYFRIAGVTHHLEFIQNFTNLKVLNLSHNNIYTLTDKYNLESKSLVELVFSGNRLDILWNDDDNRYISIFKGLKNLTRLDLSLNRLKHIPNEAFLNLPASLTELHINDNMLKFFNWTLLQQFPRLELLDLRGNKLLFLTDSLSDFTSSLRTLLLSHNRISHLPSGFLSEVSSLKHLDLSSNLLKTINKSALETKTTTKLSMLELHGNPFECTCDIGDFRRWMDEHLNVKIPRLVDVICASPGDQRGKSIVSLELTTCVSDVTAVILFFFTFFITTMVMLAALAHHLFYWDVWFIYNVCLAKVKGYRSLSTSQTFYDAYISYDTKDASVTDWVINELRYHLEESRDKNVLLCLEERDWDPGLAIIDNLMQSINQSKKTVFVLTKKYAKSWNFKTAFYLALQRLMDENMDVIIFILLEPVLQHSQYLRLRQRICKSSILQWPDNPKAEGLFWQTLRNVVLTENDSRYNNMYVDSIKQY
Outline: as §1

| IC50 [1] | IC50 [2] | IC50 [3] | Compound |
| --- | --- | --- | --- |
| 100 to 1000 nM | 100 to 1000 nM | 100 to 1000 nM | CC(C)c1c(-c2ccc3cnnn3c2)[nH]c2ccc(C3CCN(C(=O)CN(C)C)CC3)cc12 [Example 464, 1-(4-(2-([1,2,3]triazolo[1,5-a]pyridin-6-yl)-3-isopropyl-1H-indol-5-yl)piperidin-1-yl)-2-(dimethylamino)ethan-1-one] |
| < 100 nM | 100 to 1000 nM | 100 to 1000 nM | Cc1cn2cc(-c3[nH]c4ccc(C5CCNCC5)cc4c3C(C)C)cc(C(F)(F)F)c2n1 [Example 137, 6-(3-isopropyl-5-(piperidin-4-yl)-1H-indol-2-yl)-2-methyl-8-(trifluoromethyl)imidazo[1,2-a]pyridine] |
| 1000 to 50000 nM | 100 to 1000 nM | 1000 to 50000 nM | CCc1c(-c2ccn3ccnc3c2)[nH]c2ccc(C3CCNCC3)cc12 [Example 202, 7-(3-ethyl-5-(piperidin-4-yl)-1H-indol-2-yl)imidazo[1,2-a]pyridine] |
| < 100 nM | 1000 to 50000 nM | < 100 nM | Cc1cc(-c2[nH]c3ccc(C4CCN(C(=O)CN(C)C5CC5)CC4)cc3c2C(C)C)cn2nnnc12 [Example 483, 2-(cyclopropyl(methyl)amino)-1-(4-(3-isopropyl-2-(8-methyltetrazolo[1,5-a]pyridin-6-yl)-1H-indol-5-yl)piperidin-1-yl)ethan-1-one] |
| < 100 nM | 1000 to 50000 nM | < 100 nM | Cc1cc(-c2[nH]c3ccc(C4CCN(CC(=O)N(C)C)CC4)cc3c2C(C)C)cc2cccnc12 [Example 435, 2-(4-(3-isopropyl-2-(8-methylquinolin-6-yl)-1H-indol-5-yl)piperidin-1-yl)-N,N-dimethylacetamide] |
| < 100 nM | 1000 to 50000 nM | < 100 nM | CC(C)c1c(-c2cc(C(F)(F)F)c3nccn3c2)[nH]c2ccc(C3CCN(CC(=O)N(C)C)CC3)cc12 [Example 372, 2-(4-(3-isopropyl-2-(8-(trifluoromethyl)imidazo[1,2-a]pyridin-6-yl)-1H-indol-5-yl)piperidin-1-yl)-N,N-dimethylacetamide] |
| < 100 nM | 100 to 1000 nM | > 3130 nM | Cc1cn2cc(-c3[nH]c4ccc(C5CCN(C(=O)CN(C)C)CC5)cc4c3CC(F)F)ccc2n1 [Example 551, 1-(4-(3-(2,2-difluoroethyl)-2-(2-methylimidazo[1,2-a]pyridin-6-yl)-1H-indol-5-yl)piperidin-1-yl)-2-(dimethylamino)ethan-1-one] |
| < 100 nM | 1000 to 50000 nM | < 100 nM | COc1cc(-c2[nH]c3ccc(C4CCN(C(=O)CN(C)C)CC4)cc3c2C(C)C)nn2ncnc12 [Example 460, 2-(dimethylamino)-1-(4-(3-isopropyl-2-(8-methoxy-[1,2,4]triazolo[1,5-b]pyridazin-6-yl)-1H-indol-5-yl)piperidin-1-yl)ethan-1-one] |
| < 100 nM | > 50000 nM | 100 to 1000 nM | Cc1cc(-c2[nH]c3ccc(C4CCN(C(=O)C5CC(=O)N(C)C5)CC4)cc3c2C(C)C)c2ccccc2n1 (stereo not drawn) [Example 638, 4-(4-(3-isopropyl-2-(2-methylquinolin-4-yl)-1H-indol-5-yl)piperidine-1-carbonyl)-1-methylpyrrolidin-2-one] |
| < 100 nM | 1000 to 50000 nM | < 100 nM | Cc1ccnc2c1c(-c1[nH]c3ccc(C4CCNCC4)cc3c1C(C)C)cn2C [Example 35, 3-(3-isopropyl-5-(piperidin-4-yl)-1H-indol-2-yl)-1,4-dimethyl-1H-pyrrolo[2,3-b]pyridine] |
| < 100 nM | 100 to 1000 nM | < 100 nM | CNC(=O)CN1CCC(c2ccc3[nH]c(-c4cn5ccnc5c(C)c4C)c(C(C)C)c3c2)CC1 [Example 413, 2-(4-(2-(7,8-dimethylimidazo[1,2-a]pyridin-6-yl)-3-isopropyl-1H-indol-5-yl)piperidin-1-yl)-N-methylacetamide] |
| 1000 to 50000 nM | 1000 to 50000 nM | 100 to 1000 nM | Cc1cc(-c2[nH]c3ccc(C4CCN(Cc5ncn(C)n5)CC4)cc3c2C(C)C)cn2nncc12 [Example 881, 6-(3-isopropyl-5-(1-((1-methyl-1H-1,2,4-triazol-3-yl)methyl)piperidin-4-yl)-1H-indol-2-yl)-4-methyl-[1,2,3]triazolo[1,5-a]pyridine] |
| 100 to 1000 nM | > 50000 nM | 100 to 1000 nM | CNC(=O)CN1CCC(c2ccc3[nH]c(-c4ccc5ncc(C#N)n5c4)c(C(C)C)c3c2)CC1 [Example 390, 2-(4-(2-(3-cyanoimidazo[1,2-a]pyridin-6-yl)-3-isopropyl-1H-indol-5-yl)piperidin-1-yl)-N-methylacetamide] |
| 100 to 1000 nM | 1000 to 50000 nM | < 100 nM | CCc1c(-c2ccnc3[nH]ncc23)[nH]c2ccc(C3CCN(Cc4cocn4)CC3)cc12 [Example 920, 4-((4-(3-ethyl-2-(1H-pyrazolo[3,4-b]pyridin-4-yl)-1H-indol-5-yl)piperidin-1-yl)methyl)oxazole] |
